Experimental data taken from ChEMBL document CHEMBL5370641, “Structure-Based Optimization and Biological Evaluation of Potent and Selective MMP-7 Inhibitors for Kidney Fibrosis” (J Med Chem, 2023).
Active and inactive are the calls of the source. No cut-off for these calls is given here. Numbered stars: 1 amine (or outer) side, 2 acyl side, 3 side chain; on linkers, the order of the positions; unused ones are H or OH. Square brackets hold non-standard residues; d marks the D form. Peptide text beside a SMILES is read from it. * marks the point of attachment. Benzenesulfonyl(4-Cl,3-CF3) = O=S(=O)(c1ccc(Cl)c(C(F)(F)F)c1)*; Phe(4-CF3) = N[C@@H](Cc1ccc(C(F)(F)F)cc1)C(=O)O; Ala(thiazol-2-yl) = N[C@@H](Cc1nccs1)C(=O)O; Phe(4-I) = N[C@@H](Cc1ccc(I)cc1)C(=O)O; γGlu = O=C(O)[C@H](CCC(=O)[*:2])N[*:1]; Phe(2-I) = N[C@@H](Cc1ccccc1I)C(=O)O; 2Pal = N[C@@H](Cc1ccccn1)C(=O)O; Phg = N[C@H](C(=O)O)c1ccccc1; Tle = CC(C)(C)[C@H](N)C(=O)O; β3hP = O=C(O)C[C@@H]1CCCN1

Key:
[1] = target: Matrix metalloproteinase-14 (Homo sapiens, UniProt P50281); assay: Inhibition of recombinant human MMP14 using MOCAc-Lys-Pro-Leu-Gly-Leu-A2pr(Dnp)-Ala-Arg-NH2 as substrate preincubated with compound for 15 mins followed by substrate addition and measured after 1 hrs by fluorescence based analysis
Matrilysin = target: T1, Matrilysin (Homo sapiens, UniProt P09237); assay: Inhibition of recombinant human MMP7 using MOCAc-Pro-Leu-Gly-Leu-A2pr-(Dnp)-Ala-Arg-NH2 as substrate preincubated with compound for 15 mins followed by substrate addition and measured after 2 hrs by fluorescence based analysis
T1 sequence (P09237 whole entry): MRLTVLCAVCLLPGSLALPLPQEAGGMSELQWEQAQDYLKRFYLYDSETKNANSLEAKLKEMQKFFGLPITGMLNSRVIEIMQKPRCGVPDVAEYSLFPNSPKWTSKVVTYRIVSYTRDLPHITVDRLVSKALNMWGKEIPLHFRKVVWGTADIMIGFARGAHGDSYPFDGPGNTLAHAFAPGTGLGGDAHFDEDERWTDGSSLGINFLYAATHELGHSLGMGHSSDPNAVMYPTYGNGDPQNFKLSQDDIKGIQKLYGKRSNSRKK

Mus musculus = assay: Antifibrotic activity against unilateral ureteric obstruction induced C57BL/6J mouse model of renal fibrosis assessed as reduction in renal collagen at 0.1 mg/ml preadministered with compound via drinking water for 7 days followed by UUO surgery and measured after 7 days; type: functional, organism-based; conditions: route po, time 14.0 day

Row | Structure (SMILES) | IC50 [1] | IC50 (Matrilysin) | Activity (Mus musculus)
1 | CC(C)(C)[C@H](NC(=O)[C@H](Cc1ccc(C(F)(F)F)cc1)NC(=O)CNC(=O)CC[C@H](NS(=O)(=O)c1ccc(Cl)c(C(F)(F)F)c1)C(=O)O)C(=O)N1CCC[C@H]1CC(N)=O ({Benzenesulfonyl(4-Cl,3-CF3)-γGlu}-G[Phe(4-CF3)][Tle][β3hP]-NH2) | 1700 nM | 10 nM | 
2 | CCCCc1nc(Cl)c(CO)n1Cc1ccc(-c2ccccc2-c2nnn[nH]2)cc1 |  |  | Active
3 | CC(C)(C)[C@H](NC(=O)[C@@H](NC(=O)CNC(=O)CC[C@H](NS(=O)(=O)c1ccc(Cl)c(C(F)(F)F)c1)C(=O)O)c1ccccc1)C(=O)N1CCC[C@H]1CC(N)=O ({Benzenesulfonyl(4-Cl,3-CF3)-γGlu}-G[Phg][Tle][β3hP]-NH2) | 5100 nM | 380 nM | 
4 | CC(C)(C)[C@H](NC(=O)[C@H](Cc1ccccc1)NC(=O)CNC(=O)CC[C@H](NS(=O)(=O)c1ccc(Cl)c(C(F)(F)F)c1)C(=O)O)C(=O)N1CCC[C@H]1CC(N)=O ({Benzenesulfonyl(4-Cl,3-CF3)-γGlu}-GF[Tle][β3hP]-NH2) | 3200 nM | 13 nM | 
5 | CC(C)(C)[C@H](NC(=O)[C@H](Cc1ccccc1I)NC(=O)CNC(=O)CC[C@H](NS(=O)(=O)c1ccc(Cl)c(C(F)(F)F)c1)C(=O)O)C(=O)N1CCC[C@H]1CC(N)=O ({Benzenesulfonyl(4-Cl,3-CF3)-γGlu}-G[Phe(2-I)][Tle][β3hP]-NH2) | 3400 nM | 8.8 nM | 
6 | CC(C)(C)[C@H](NC(=O)[C@H](Cc1ccc(I)cc1)NC(=O)CNC(=O)CC[C@H](NS(=O)(=O)c1ccc(Cl)c(C(F)(F)F)c1)C(=O)O)C(=O)N1CCC[C@H]1CC(N)=O ({Benzenesulfonyl(4-Cl,3-CF3)-γGlu}-G[Phe(4-I)][Tle][β3hP]-NH2) | 690 nM | 8.4 nM | 

Second part, led by results:

Row | IC50 [1] | IC50 (Matrilysin) | Structure (SMILES) | Activity (Mus musculus)
7 | 3800 nM | 9.6 nM | CC(C)(C)[C@H](NC(=O)[C@H](Cc1nccs1)NC(=O)CNC(=O)CC[C@H](NS(=O)(=O)c1ccc(Cl)c(C(F)(F)F)c1)C(=O)O)C(=O)N1CCC[C@H]1CC(N)=O ({Benzenesulfonyl(4-Cl,3-CF3)-γGlu}-G[Ala(thiazol-2-yl)][Tle][β3hP]-NH2) | 
8 | 16000 nM | 100 nM | CC(C)c1cn(C[C@H](NC(=O)CNC(=O)CC[C@H](NS(=O)(=O)c2ccc(Cl)c(C(F)(F)F)c2)C(=O)O)C(=O)N[C@H](C(=O)N2CCC[C@H]2CC(N)=O)C(C)(C)C)nn1 | 
9 | 46000 nM | 23 nM | CC(C)Cn1cc(-c2ccc(C[C@H](NC(=O)CNC(=O)CC[C@H](NS(=O)(=O)c3ccc(Cl)c(C(F)(F)F)c3)C(=O)O)C(=O)N[C@H](C(=O)N3CCC[C@H]3CC(N)=O)C(C)(C)C)cc2)cn1 | 
10 | 3500 nM | 1.9 nM | CC(C)(C)[C@H](NC(=O)[C@H](Cc1ccccn1)NC(=O)CNC(=O)CC[C@H](NS(=O)(=O)c1ccc(Cl)c(C(F)(F)F)c1)C(=O)O)C(=O)N1CCC[C@H]1CC(N)=O ({Benzenesulfonyl(4-Cl,3-CF3)-γGlu}-G[2Pal][Tle][β3hP]-NH2) | 
11 | 9300 nM | 40 nM | CC(C)(C)[C@H](NC(=O)[C@H](Cn1cc(C2CC2)nn1)NC(=O)CNC(=O)CC[C@H](NS(=O)(=O)c1ccc(Cl)c(C(F)(F)F)c1)C(=O)O)C(=O)N1CCC[C@H]1CC(N)=O | 
